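Values below derive from 48-hour exposures of cells grown in 96-well plates, with endpoints linearly interpolated between the two concentrations bracketing the appropriate inhibition level. GI50 = concentration required for 50% inhibition of growth. Definition used: TGI = concentration required for complete inhibition of growth.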
Experiments:
Experiment in all cases: DTP human tumour cell line panel, 48 h
786-0 renal = system: 786-0 renal
CCRF-CEM leukemia = system: CCRF-CEM leukemia
DU-145 prostate = system: DU-145 prostate
EKVX NSCLC = system: EKVX NSCLC
NCI-H460 lung = system: NCI-H460 lung
RXF 393 renal = system: RXF 393 renal
SK-MEL-2 melanoma = system: SK-MEL-2 melanoma
SR leukemia = system: SR leukemia
T-47D breast = system: T-47D breast
UO-31 renal = system: UO-31 renal

| SMILES | GI50 (786-0 renal) | TGI (786-0 renal) | GI50 (CCRF-CEM leukemia) | TGI (CCRF-CEM leukemia) | GI50 (DU-145 prostate) | TGI (DU-145 prostate) | GI50 (EKVX NSCLC) | TGI (EKVX NSCLC) | GI50 (NCI-H460 lung) | TGI (NCI-H460 lung) | GI50 (RXF 393 renal) | TGI (RXF 393 renal) | GI50 (SK-MEL-2 melanoma) | TGI (SK-MEL-2 melanoma) | GI50 (SR leukemia) | TGI (SR leukemia) | GI50 (T-47D breast) | TGI (T-47D breast) | GI50 (UO-31 renal) | TGI (UO-31 renal) |
| --- | --- | --- | --- | --- | --- | --- | --- | --- | --- | --- | --- | --- | --- | --- | --- | --- | --- | --- | --- | --- |
| Cc1ccc(NC(=O)c2sc3nc(C)c(C(O)c4ccccc4)cc3c2N)cc1 (stereo not given) | 1.02 µM | 18.8 µM | 0.375 µM | > 49.7 µM | 0.391 µM | 16.8 µM | 0.733 µM | > 100 µM | 0.359 µM | 5.32 µM | 0.333 µM | 3.29 µM | 1.32 µM | 67.3 µM | 0.283 µM | > 25.6 µM | 0.471 µM | > 58.3 µM | 0.72 µM | 41.6 µM |
| CS(=O)(=O)c1cc(=O)c2ccccc2s1 |  | 13 µM |  | 3.93 µM |  | 33.3 µM |  | 21.4 µM |  | 41.2 µM |  | 9.05 µM |  | 30.4 µM |  | 8.09 µM |  | 9.41 µM |  | 29.4 µM |
| COc1cc2c3c(n(CCNCCCNCCn4c5c(c6cc(OC)c(OC)cc6c4=O)C(=O)c4ccccc4-5)c(=O)c2cc1OC)-c1ccccc1C3=O | 0.186 µM | 6.17 µM | < 0.0174 µM | 1.63 µM | 0.197 µM | 30.8 µM | 5.89 µM | 47.2 µM | 0.0719 µM | 4.68 µM | 1.14 µM | 12.1 µM | 1.04 µM | 15.2 µM | 0.0191 µM | 0.702 µM | 2.32 µM | > 34.7 µM | > 65.1 µM | > 100 µM |
| Cc1ccc2c3c(c(=O)[nH]c2c1)C1(C(C#N)=C(N)O3)c2cc(Br)ccc2-c2ccc(Br)cc21 | 2.46 µM | 6.01 µM | 3.12 µM | 15 µM | 2.98 µM | 12.1 µM | 1.74 µM | 3.82 µM | 2.09 µM | 4.67 µM | 1.53 µM | 3.13 µM | 2.52 µM | 6.72 µM | 2.36 µM | 14.5 µM | 1.68 µM | 3.78 µM | 1.33 µM | 2.74 µM |
| CSc1nc2cc(S(=O)(=O)N3CCCCC3)ccc2s1 |  | > 100 µM |  | > 100 µM |  | > 100 µM |  | > 100 µM |  | > 100 µM |  | > 100 µM |  | > 100 µM |  | > 100 µM |  | > 100 µM |  | > 100 µM |
| Cn1c2ccccc2c2c3[nH]c(=O)[nH]c(=O)c3c3c4ccccc4n(C)c3c21 | 1.88 µM | 4.34 µM | 3.73 µM | > 100 µM | 1.51 µM | > 100 µM | 2.54 µM | 47.2 µM | 3.09 µM | > 100 µM | 1.74 µM | 5.25 µM | 4.5 µM | 19.7 µM |  |  | 2.05 µM | 27.1 µM |  |  |
| CC[CH2][Sn]([Cl])([Cl])[CH2]CC.Oc1ccccc1C=NCCN=Cc1ccccc1O | 7.91 µM | 20.7 µM | 2.16 µM | 41.8 µM | 12.1 µM | 24.6 µM | 12.9 µM | 27.3 µM | 15.6 µM | 33 µM | 2.41 µM | 8.11 µM |  |  | 5.45 µM | > 100 µM | 1.09 µM | 2.6 µM | 5.45 µM | 21.5 µM |
| Cc1nc(-c2ccccc2)c(-c2ccccc2)s1 |  | 50.8 µM |  | 40.3 µM |  | > 100 µM |  | 69.4 µM |  | 42.2 µM |  | 49.8 µM |  | 32.8 µM |  |  |  | > 100 µM |  | 54.1 µM |
| Cc1ccc(NC(=O)NCCCOc2ccc(N3C(N)=NC(N)=NC3(C)C)cc2Cl)cc1S(=O)(=O)F | 7.36 µM | > 100 µM | 9.69 µM | > 100 µM | 6.04 µM | > 100 µM | 10.9 µM | > 100 µM | 1.68 µM | > 100 µM | 98.3 µM | > 100 µM |  |  | 0.724 µM | > 100 µM | 19.8 µM | > 100 µM | > 100 µM | > 100 µM |
| CN1C(=O)c2ccccc2NC(=O)C12O[C@@H]2c1cccc(O)c1 (stereo not given in full) |  | > 100 µM |  | > 100 µM |  | > 100 µM |  | > 100 µM |  | > 100 µM |  |  |  | > 100 µM |  | > 100 µM |  | > 100 µM |  | > 100 µM |
| CC(C)CCCC(=O)CCCCCCC(=O)CCN(O)C(=O)C(N)CO (stereo not given) |  | 36.2 µM |  | > 100 µM |  | 37.4 µM |  | 27.5 µM |  |  |  | 27.4 µM |  | 39.5 µM |  |  |  | 34.8 µM |  | 26.7 µM |
| C=C(C)C1CCC2(C(=O)O)CCC3(C)C(CCC4C5(C)CCC(OC(=O)NCc6ccccc6)C(C)(C)C5CCC43C)C12 (stereo not given) | 3.98 µM | > 100 µM | 2.36 µM | > 100 µM | 4.14 µM | 35.2 µM | 1.71 µM | > 100 µM | 3.14 µM | 16.5 µM |  |  | 5.46 µM | > 100 µM | 2.22 µM | > 100 µM | 3.19 µM | > 100 µM | 1.86 µM | 34.5 µM |
| COc1cc2c(c(OC)c1OC)C(=O)[C@@H]1c3ccc([N+](=O)[O-])cc3C(=O)N(CCCBr)[C@H]21 | 12.5 µM | 33.1 µM |  |  | 14.6 µM | 53.2 µM | 12.7 µM | 61.6 µM | 8.15 µM | 62.2 µM |  |  | 19.7 µM | 59.8 µM | 3.92 µM | > 100 µM | 7.88 µM | > 100 µM | 4.49 µM | 25.7 µM |
| O=C(O)[C@@H]1CCCCN1Cc1cc2cc3c(cc2c2cc(OCc4ccccc4)ccc12)OCO3 | 18.9 µM | 44.9 µM | 14.9 µM | > 100 µM | 5.19 µM | > 100 µM | 4.42 µM | 25.3 µM | 1.49 µM | 3.39 µM | 6.05 µM | 22.6 µM | 15.6 µM | 37.4 µM |  |  | 2.97 µM | 29.5 µM | 4.77 µM | 17.4 µM |

From PubChem BioAssay (NCI)
